Experimental data published in patent US8143288B2, “Inhibitors of HCV replication” (priority 2005, dated 2012).
Where two headings read alike, the source gives them in different places.

Columns and labels:
[1] = test system: Y2065H HCV 1b-377-neo replicon cells; assay: FRET assay on Y2065H (Y > H) replicon cells; type: cell-based; settings: for EC50: Hepatitis C virus
[2] = test system: wild-type HCV 1b-377-neo replicon; assay: Colony formation, wild-type replicon RNA in Huh-7 cells; type: cell-based; settings: 2 μM Compound A
Source text: (§1) To determine if the Y2065H change was necessary and sufficient to confer resistance to Compound A, the single mutation was generated in the HCV 1b-377-neo replicon. […] To further verify this, colonies formed in the absence of Compound A were isolated and expanded for both the wild-type and Y2065H clones. Sensitivity of these cells to Compound A was then examined using the FRET assay.

[3] = test system: Y2065H HCV 1b-377-neo replicon; assay: Colony formation, Y2065H replicon RNA in Huh-7 cells; type: cell-based; settings: Y > H RNA transfected, 2 μM Compound A, 3 weeks G418 selection
Source text: as §1

[4] = Alamar blue cytotoxicity (CC50) in replicon cells; type: cell-based; settings: human, wild-type HCV 1b-377-neo replicon cells
Description: (§2) At subsequent various times (typically 72 hours), 10% final volume Alamar blue (Cat#00-100, Trek Diagnostics, Cleveland, Ohio) was added to each well. The plates were returned to the incubator for 5 hours and then read in the Cytoflour (PE Biosystems) to determine Alamar blue conversion in each well as a measure of cellular toxicity. After reading the Alamar blue fluorescence following the manufacturers directions, plates were rinsed 2× with PBS and then used for FRET assay by the addition of 30 μl of the FRET peptide assay reagent (described above) per well. The plate was then placed into the Cytoflour 4000 instrument which had been set to 340 excite/490 emission, automatic mode for 20 cycles and the plate read in a kinetic mode. Typically, the signal to noise using an endpoint analysis after the reads was at least three-fold.
Compound analysis depended upon the quantification of the relative HCV replicon inhibition and the relative cytotoxicity values. To calculate cytotoxicity values, the average alamar blue fluorescence signals from the control wells in row 11 were set as 100% non-toxic. The individual signals in each of the compound test wells were then divided by the average control signal and multiplied by 100% to determine […]. […]

[5] = test system: HCV 1b-377-neo replicon cells; assay: HCV replicon FRET assay; type: cell-based; settings: Hepatitis C virus
[6] = test system: Compound A-r replicon cells; assay: FRET assay on selected Compound A-r replicon cells; type: cell-based, HCV; settings: judged by the FRET assay; cells selected with Compound A 5-6 weeks
Description: HCV 1b-377-neo replicon cells were plated in 100-mm plates with ˜25% confluence after 24 hour seeding. Compound A (prepared by the procedure described in WO04/014852, published Feb. 19, 2004) was added at the final concentrations of 5, 10 and 20 μM in the presence of G418. Wild type replicon cells 15 in the absence of the compound were used as a control. After 5-6 weeks, both wt replicon cells and selected cells were tested for their sensitivity to Compound A. In addition, cell lines derived from individual colonies from different concentrations of selective Compound A were also isolated, expanded and tested. In the initial test, approximately 60-fold resistance, judged by the FRET assay, was observed between wt replicon cells and selected replicon cells (designated as Compound A-r replicon cells).

[7] = Alamar blue cytotoxicity (CC50) in Y > H replicon cells; type: cell-based; settings: human
Description: as §2
The assay was further adapted to accommodate titrations of compounds to determine EC50 and CC50 values.
as §1

HCV replicon = assay: Combination studies in HCV replicon system (FRET, method of Chou); type: cell-based; settings: for combination response: in combination with Example 3, replicon cells, 72 hours
Description: Since clinical drug resistance often develops in viral infections following single-agent therapies, there is a need to assess the additive, antagonistic, or synergistic properties of combination therapies. […] Drugs were tested at eleven concentrations each, diluted in DMSO by 3-fold dilutions. The highest concentration used for the four HCV inhibitors was 0.1 μM for Example 3 and 20 μM for the three other HCV antivirals. […] The drugs were tested as monotherapies and in combination with Example 3 at various concentration ratios. Cells were exposed to compounds for 72 hours and the amount of HCV inhibition was then determined using the FRET assay. The potential cytotoxicities of these combined agents were also analyzed in parallel by Alamar blue staining. The degree of antagonism or synergy was determined over a range of drug concentrations, and the combination response curves were fit to assess the antiviral effects of the drug treatment combinations. The concentration ratios were analyzed using the method of Chou. Table 5 reports the combination indices (CI) and the asymptotic confidence intervals at the different concentration ratios. All combination indices were tested for departure from additivity using isobologram methods.

HCV = HCV therapy, Poynard et al. 1998; cited from earlier work
[8] = Wild-type replicon cells, FRET assay, read-out: EC50
[9] = monotherapy, 72 hours, FRET assay, read-out: EC50 in monotherapy
[10] = combined with Example 3, molar ratio 1:1
[11] = combined with Example 3, molar ratio 1:2.5
[12] = combined with Example 3, molar ratio 2.5:1

Compound: C[C@H](NC(=O)OCc1ccccc1)C(=O)Nc1ccc(C2S/C(=N\c3cccc(F)c3)N(Cc3ccco3)C2=O)cc1 (stereo partly shown) [Compound A, reference compound]
- EC50 [1]: > 5 µM
- Number of colonies ([2]; Wild-type RNA transfected, 3 weeks G418 selection): 3
- reduction in colony number ([2]; wild-type replicon RNA): 95%
- Number of colonies [3]: 10
- CC50 at 72 h [4]: > 5 µM
- EC50 [5, 8]: 1.5 µM
- resistance between wt replicon cells and selected replicon cells [6]: approximately 60 fold
- CC50 at 72 h [7]: > 5 µM

Compound: O=C(Nc1ccc(/C=C/c2ccc(NC(=O)[C@@H]3CCCN3C(=O)Cc3ccccc3)cc2)cc1)[C@@H]1CCCN1C(=O)Cc1ccccc1 [Example 3]
- EC50 [1]: > 5 µM
- window of resistance in Y2065H cells as compared to wild-type cells ([1]; Y2065H vs wild-type cells): > 100 fold
- CC50 at 72 h [4]: > 5 µM
- EC50 ([5]; HCV replicon, read-out: Activity (EC50)): 0.0001 to 0.09 µM
- EC50 [5, 8]: < 0.05 µM
- EC50 [5, 9]: < 0.05 µM
- CC50 at 72 h [7]: > 5 µM
- combination response (HCV replicon): no significant drug antagonism

Compound: C=CC1CC1(NC(=O)[C@@H]1C[C@@H](Oc2cc(-c3ccccc3)nc3cc(OC)ccc23)CN1C(=O)C(NC(=O)OC(C)(C)C)C(C)(C)C)C(=O)O (stereo partly shown) [protease inhibitor]
- EC50 [5, 9]: 0.33 µM
- CI at HCV inhibition of: 75% (HCV replicon; [10]): 0.96 +/− 0.38
- CI at HCV inhibition of: 90% (HCV replicon; [10]): 0.91 +/− 0.55
- CI at HCV inhibition of: 95% (HCV replicon; [10]): 0.88 +/− 0.69
- Overall Result (HCV replicon; [10]): Additive
- CI at HCV inhibition of: 50% (HCV replicon; combined with Example 3, molar ratio 1:1 (first number Example 3)): 1.05 +/− 0.29
- CI at HCV inhibition of: 75% (HCV replicon; [11]): 0.78 +/− 0.22
- CI at HCV inhibition of: 90% (HCV replicon; [11]): 0.76 +/− 0.33
- CI at HCV inhibition of: 95% (HCV replicon; [11]): 0.75 +/− 0.43
- Overall Result (HCV replicon; [11]): Synergistic/Additive
- CI at HCV inhibition of: 50% (HCV replicon; combined with Example 3, molar ratio 1:2.5 (first number Example 3)): 0.82 +/− 0.17
- CI at HCV inhibition of: 75% (HCV replicon; [12]): 0.88 +/− 0.27
- CI at HCV inhibition of: 90% (HCV replicon; [12]): 0.81 +/− 0.40
- CI at HCV inhibition of: 95% (HCV replicon; [12]): 0.77 +/− 0.49
- Overall Result (HCV replicon; [12]): Additive
- CI at HCV inhibition of: 50% (HCV replicon; combined with Example 3, molar ratio 2.5:1 (first number Example 3)): 0.97 +/− 0.22
- combination response (HCV replicon): additive response

Compound: alpha-interferon and ribavirin
- sustained efficacy (HCV): 40 % of patients
